# Legend:
# [1] = system: Trypanosoma brucei gambiense; experiment: Activity against Trypanosoma brucei gambiense (procyclic culture, 5 days, density by Coulter Counter); type: cell-based, T. brucei subsp. gambiense procyclic (strain TH114); conditions: 120 h, T. brucei gambiense procyclic TH114, medium PDM-79, 27° C., read-out: I50
# Procedure: A) Activity against Trypanosoma brucei gambiense 1. T. brucei subsp. gambiense procyclic (strain TH114 from the Institut fur Schiffs und Tropenkrankheiten, Hamburg) were grown in medium PDM-79 (Fish et al; BBA714[1982]422-428) in 25 cm^2 tissue (T-25) culture flasks at 27° C. in a 5% CO^2 /air atmosphere. Drugs were dissolved in 0.1N NaOH and their concentration determined from their spectral data. Drugs were added to the PDM-79 at a volume≤1% of the total volume and the drug containing medium filter-sterilised into T-25 flasks. Flasks were inoculated to a final density of ≈10^5 /ml and incubated for 5 days at which time their density was determined by a Coulter Counter (Model ZB1). Results were expressed as % inhibition relative to the controls.
# Pneumocystis carinii = experiment: Activity against Pneumocystis carinii (method of Pesanti); type: cell-based; conditions: read-out: I50
# Procedure: (B) Activity against Pneumocystis carinii
# The compounds were tested according to the method of Pesanti, (J. Infect. Dis., 141(6), 775-780, 1980).
# [2] = Oral toxicology test in rats; type: in vivo; conditions: Charles River CD rats, 4 mg/kg for 30 days
# Procedure: Charles River CD rats were given oral doses of the compound of Example 3 at 4 mg/kg for 30 days.
Structure (SMILES),IC50 [1] [nM],IC50 (Pneumocystis carinii) [nM],"treatment-related changes with respect to clinical signs of toxicity, body weight, clinical pathology or pathology [2]"
"Nc1ncnc2c1ncn2[C@@H]1CC[C@@H](O)[C@H]1O (relative stereo) [Example 1C, (±)-(1R*,2S*,3R*)-3-(6-Amino-9H-purin-9-yl)-1,2-cyclopentanediol]",0.7,–,–
"Nc1ncnc2c1ncn2[C@H]1CC[C@@H](O)[C@H]1O (relative stereo) [Example 2, (±)-(1R*,2S*,3S*)-3-(6-Amino-9H-purin-9-yl)-1,2-cyclopentanediol]",1000,< 20000,–
"Nc1ncnc2c1nnn2[C@@H]1CC[C@@H](O)[C@H]1O (relative stereo) [Example 3C, (±)-(1R*,2S*,3R*)-3-(7-Amino-3H-1,2,3-triazolo[4,5-d]pyrimidin-3-yl)-1,2-cyclopentanediol]",200,< 20000,No treatment-related changes were observed
"Nc1ncnc2c1ncn2[C@@H]1C[C@H](CCl)[C@@H](O)[C@H]1O (relative stereo) [Example 4, (±)-(1R*,2S*,3R*,5S*)-3-(6-Amino-9H-purin-9-yl)-5-(chloromethyl)-1,2-cyclopentanediol]",3500,–,–
"C[C@H]1C[C@@H](n2cnc3c(N)ncnc32)[C@H](O)[C@@H]1O (relative stereo) [Example 5, (±)-(1R*,2S*,3R*,5S*)-3-(6-Amino-9H-purin-9-yl)-5-methyl-1,2-cyclopentanediol]",2,–,–
"NC(=O)[C@@H]1C[C@H](n2cnc3c(N)ncnc32)[C@@H](O)[C@H]1O (relative stereo) [Example 6, (±)-(1R*,2S*,3R*,4S*)-4-(6-Amino-9H-purin-9-yl)-2,3-dihydroxy-1-cyclopentanecarboxamide]",40 to 200,–,–

# Source: patent US5039689A, “Antiparasitic 3(4-amino benzotriazo-1-yl-)1,2-cyclopentanediols” (Burroughs Wellcome Co., priority 1988, dated 1991)
